According to US5612208A, “Ascorbate oxidase, gene encoding the same, process for producing the same, and reagent composition using the same” (Amano Pharmaceutical Co., Ltd., priority 1994, dated 1997):
Read-outs that look alike come from different tables or passages of the source.

Legend:
[1] = system: L-ascorbate oxidase (ASOD) of Eupenicillium brefeldianum APC-9315, purified native enzyme; assay type: biochemical
Procedure: The relative residual activity of ASOD after incubation with various inhibitors at 37° C. for 2 hours.
(§1) To 0.1 ml of a sample to be assayed is added 0.5 ml of 10 mM Na2 HPO4 and 0.45 ml of 0.2M KH2 PO4 containing 1 mM EDTA, and the mixture is mixed and preincubated at 30° C. for 5 minutes. To the mixture is added 0.05 ml of a 10 mM substrate solution of L-ascorbic acid in 0,001N HCl containing 1 mM EDTA, followed by incubation at 30° C. for 10 minutes. The reaction is stopped by addition of 3.0 ml of 0.2N HCl, and a reduction in absorbance at 245 nm is measured. The amount of ASOD in the sample which decomposes 1 μmol of L-ascorbic acid per 1 minute is taken as one unit.

[2] = system: L-ascorbate oxidase (ASOD) of Eupenicillium brefeldianum APC-9315, purified native enzyme; test: Michaelis constant (Km) for L-ascorbic acid, spectrophotometry method; assay type: biochemical; details: by the spectrophotometry method
Procedure: (8) Michaelis Constant (Km) for L-Ascorbic Acid
4.9×10^-4 M (by the spectrophotometry method)
as §1

[3] = system: ascorbate oxidase (ASO) from spores of Myrothecium verrucaria; details: data from Nihon Eiyo-Shokuryo Gakkaishi, 40, (1), 47-51 (1987); read-out: Km (L-Ascorbate); cited from earlier work
[4] = system: ascorbate oxidase of microorganism of the genus Trichoderma or Mortierella (JP-A-6-209770); details: data from JP-A-6-209770; read-out: Km (L-Ascorbate); cited from earlier work
[5] = system: ascorbate oxidase (ASO) of Acremonium sp. HI-25; details: data from Biosci. Biotechnol. Biochem., 56 (6), 847-852 (1992) & JP-A-3-236766; cited from earlier work
[6] = system: ascorbate oxidase (ASO) from spores of Myrothecium verrucaria; details: data from Nihon Eiyo-Shokuryo Gakkaishi, 40, (1), 47-51 (1987); cited from earlier work
[7] = molecular target: T1, ascorbate oxidase (ASO) of cucumber (Cucumis sativus, UniProt P14133); details: data from J. Biochem., 64 189 (1968); cited from earlier work
T1 construct: cucumbers (T. Nakamura, N. Makino and Y. Ogura, J. Biochem., Vol. 64, p. 189 (1968)); host or cells: enzyme isolated from cucumbers
T1 sequence (P14133 34-587): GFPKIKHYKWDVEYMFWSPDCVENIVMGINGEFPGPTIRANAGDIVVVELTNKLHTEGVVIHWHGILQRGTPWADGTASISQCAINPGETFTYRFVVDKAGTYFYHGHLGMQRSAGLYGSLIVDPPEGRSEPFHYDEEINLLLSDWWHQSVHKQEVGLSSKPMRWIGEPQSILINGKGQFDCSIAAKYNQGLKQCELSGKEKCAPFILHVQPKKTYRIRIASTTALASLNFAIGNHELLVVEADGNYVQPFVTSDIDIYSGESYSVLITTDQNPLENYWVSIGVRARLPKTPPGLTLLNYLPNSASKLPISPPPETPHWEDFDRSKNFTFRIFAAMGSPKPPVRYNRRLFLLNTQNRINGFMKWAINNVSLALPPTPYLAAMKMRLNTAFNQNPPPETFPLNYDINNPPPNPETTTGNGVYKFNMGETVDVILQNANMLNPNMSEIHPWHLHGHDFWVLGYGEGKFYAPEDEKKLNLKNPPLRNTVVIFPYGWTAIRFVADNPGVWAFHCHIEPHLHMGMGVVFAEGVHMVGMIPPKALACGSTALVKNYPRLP

[8] = system: ascorbate oxidase of microorganism of the genus Trichoderma or Mortierella (JP-A-6-209770); details: data from JP-A-6-209770; cited from earlier work
[9] = incubation with inhibitor at 37° C. for 2 hours, inhibitor concentration not printed

O[C@H](CS)[C@H](O)CS (racemic) [dithiothreitol]
Inhibition by inhibitor (relative residual activity), in words [1, 9]: not substantially inhibited

O=C1O[C@H]([C@@H](O)CO)C(O)=C1O [L-Ascorbic Acid, L-ascorbic acid]
Km [2]: 490 µM | Km [3]: 3000 µM | Km [4]: 700 µM

[N-]=[N+]=[N-] [sodium azide]
Inhibition by inhibitor (relative residual activity), in words [1, 9]: not substantially inhibited | Inhibition by inhibitor (relative residual activity), in words ([1]; incubation with inhibitor at 37° C. for 2 hours, inhibitor concentration not printed, listed as Sodium Azide): uninhibited | Inhibition by inhibitor, in words [5]: inhibited | Inhibition by inhibitor, in words [6]: uninhibited | Inhibition by inhibitor, in words [7]: inhibited

O=C(O)CI [monoiodoacetic acid]
Inhibition by inhibitor [1]: 50% | Inhibition by inhibitor (relative residual activity), in words [1]: inhibited partially | Inhibition by inhibitor, in words [8]: uninhibited
